Source: article PMC5746060, “General and Modular Strategy for Designing Potent, Selective, and Pharmacologically Compliant Inhibitors of Rhomboid Proteases” (Cell Chemical Biology, 2017)
Starred links: 1 amine or outer side, 2 acyl side, 3 side chain; linkers in the order of their positions; H or OH if unused. Non-standard residues stand in square brackets, D forms with d. Residues, ends and D or L forms follow the SMILES beside them. *: point of attachment. NH(4-phenylbutyl) = c1ccc(CCCCN*)cc1; X1 = C[C@H](N[*:1])C(=O)C(=O)[*:2]; NHPhenethyl = c1ccc(CCN*)cc1

Columns and labels:
endogenous GlpG = biological target: T1, endogenous GlpG (Escherichia coli, UniProt P09391); assay: inhibition of endogenous GlpG in live E. coli (LacYTM2 substrate cleavage, western blot); assay type: cell-based; conditions: live E. coli NR698, substrate MBP-FLAG-LacYTM2-Trx; read-out: IC50 In Vivo (GlpG)
T1 construct: E. coli expressing endogenous levels of GlpG; endogenous in cells; host or cells: E. coli K12 NR698 (permeabilised outer membrane)
T1 sequence (P09391 whole entry): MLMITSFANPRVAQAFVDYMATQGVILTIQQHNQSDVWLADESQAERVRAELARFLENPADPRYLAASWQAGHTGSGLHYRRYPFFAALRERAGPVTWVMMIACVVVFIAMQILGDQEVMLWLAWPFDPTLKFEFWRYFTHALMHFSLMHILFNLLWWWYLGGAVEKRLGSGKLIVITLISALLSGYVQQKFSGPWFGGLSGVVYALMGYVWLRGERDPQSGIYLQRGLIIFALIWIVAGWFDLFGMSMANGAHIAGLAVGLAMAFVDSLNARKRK
Description: The substrate MBP-FLAG-LacYTM2-Trx ([Strisovsky et al., 2009]) was expressed in wild-type E. coli NR698 with genetically permeabilized outer membrane ([Ruiz et al., 2005]) in the presence of increasing concentrations of inhibitors as described in STAR Methods. Substrate cleavage was measured in cell lysates by immunoblotting for FLAG and quantified using near-infrared fluorescence. The reported in vivo IC50 values are best-fit means with SD representative of 2–3 measurements. DMSO, dimethylsulfoxide vehicle control; KO, E. coli glpG::tet. […] The substrate AmyESP-MBP-FLAG-LacYTM2-Trx-HA was expressed in Bacillus subtilis 168 (ydcA::neo, xdkE::AmyESP-MBP-LacYTM2-Trx(erm, lin)) (BS87) in the presence of increasing concentrations of inhibitors as described in STAR Methods. Substrate cleavage was detected in cell lysates by immunoblotting for FLAG and detection by near-infrared fluorescence. […] This treatment was necessary because the specific cleavage product could not be resolved sufficiently well from the non-specific bands to be integrated separately. DMSO, dimethylsulfoxide vehicle control; YqgP KO, Bacillus subtilis 168 (ydcA::neo, yqgP::tet, xdkE::AmyESP-MBP-LacYTM2-Trx(erm, lin)) (BS88).

DmRho1 = biological target: T2, DmRho1 (Drosophila melanogaster, UniProt P20350); assay: activity-based probe competition assay, rhomboid panel; assay type: biochemical; conditions: 50 μM and 0.5 μM
T2 construct: made in house
T2 sequence (P20350 1-355): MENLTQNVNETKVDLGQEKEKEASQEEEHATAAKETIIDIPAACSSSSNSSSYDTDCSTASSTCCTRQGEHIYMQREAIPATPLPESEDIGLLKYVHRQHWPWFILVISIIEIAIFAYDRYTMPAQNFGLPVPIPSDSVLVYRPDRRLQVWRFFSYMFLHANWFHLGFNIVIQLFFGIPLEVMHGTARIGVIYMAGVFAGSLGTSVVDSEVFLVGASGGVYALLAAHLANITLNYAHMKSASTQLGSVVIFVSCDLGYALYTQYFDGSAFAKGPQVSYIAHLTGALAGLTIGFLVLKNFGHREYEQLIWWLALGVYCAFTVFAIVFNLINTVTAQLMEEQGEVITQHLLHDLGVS
Source text: (§1) Any enzyme inhibitors to be used as specific tools for cell biology or as starting points for drug development must show sufficient level of selectivity toward their intended target. This is particularly important for compounds that react with the catalytic nucleophile common to many serine hydrolases. […] To map the selectivity of peptidyl ketoamides more objectively and widely, we employed activity-based probe (ABP) competition assays that enable a more general and substrate-independent measurement of inhibitory potency, because they rely solely on the competition between a fluorescently labeled activity-based probe and the tested inhibitor ([Nguyen et al., 2015], [Serim et al., 2012]). The assays we employed used fluorophosphonate ABPs that target the catalytic serine of a wide-range of serine hydrolases ([Bachovchin et al., 2014]), including rhomboids ([Xue et al., 2012]), and are thus very practical general detection reagents even for serine hydrolases for which sensitive substrates might not be available.
(§2) Figure 5 Selectivity of Peptidyl Ketoamides (A) Selectivity of compounds 9, 10, and 11 for nine rhomboid proteases was profiled using activity-based probe competition assay at 50 μM and 0.5 μM concentration. The upper limit of enzyme concentration was 0.4 μM. (B) Selectivity of compounds 9, 10, and 11 against human serine hydrolases was analyzed using EnPlex as described ([Bachovchin et al., 2014]).
(§3) For inhibitor selectivity profiling against rhomboid proteases ([Wolf et al., 2015]), 400 ng of a purified protein preparation of E. coli GlpG was diluted in 30 μL of reaction buffer (20 mM HEPES, pH 7.4, with 0.05% (w/v) DDM). For other rhomboids, amounts were taken that gave similar labeling intensity during profiling. Rhomboids were incubated for 30 min at room temperature with the indicated concentration of compound, 100 μM DCI as positive control, or an equal volume of DMSO as negative control. Next, TAMRA-FP serine hydrolase probe (Thermo Fisher #88318) was added to a final concentration of 1 ìM and incubated for 2 h at 37°C in the dark. The reaction was stopped by addition of 4× Laemmli buffer and the reaction mixture was resolved on 15% SDS-PAGE. Gels were scanned on a Typhoon Trio+ and analyzed using ImageJ. The intensity of each rhomboid protease band calculated by ImageJ was normalized against its corresponding DMSO-treated counterpart (100% activity) to indicate the residual activity left after inhibition. The remaining activity was used to calculate the percentage of inhibition depicted in the heatmap. Selectivity profiles against human serine hydrolases were determined by EnPlex as described previously ([Bachovchin et al., 2014]).

HiGlpG = biological target: T3, HiGlpG (Haemophilus influenzae, UniProt P44783); assay: as above; assay type: biochemical; conditions: 50 μM and 0.5 μM; outcompeted the ABP even at 500 nM
T3 construct: made in house
T3 sequence (P44783 whole entry): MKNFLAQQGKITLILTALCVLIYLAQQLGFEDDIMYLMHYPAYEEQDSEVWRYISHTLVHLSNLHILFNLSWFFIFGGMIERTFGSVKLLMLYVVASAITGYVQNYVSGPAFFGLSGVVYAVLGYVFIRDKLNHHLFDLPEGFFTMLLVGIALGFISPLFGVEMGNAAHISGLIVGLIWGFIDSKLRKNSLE
Source text: as §1, §2, §3

MmRHBDL3 = biological target: T4, MmRHBDL3 (Mus musculus, UniProt P58873); assay: as above; assay type: biochemical; conditions: 50 μM and 0.5 μM
T4 construct: made in house
T4 sequence (P58873 1-404): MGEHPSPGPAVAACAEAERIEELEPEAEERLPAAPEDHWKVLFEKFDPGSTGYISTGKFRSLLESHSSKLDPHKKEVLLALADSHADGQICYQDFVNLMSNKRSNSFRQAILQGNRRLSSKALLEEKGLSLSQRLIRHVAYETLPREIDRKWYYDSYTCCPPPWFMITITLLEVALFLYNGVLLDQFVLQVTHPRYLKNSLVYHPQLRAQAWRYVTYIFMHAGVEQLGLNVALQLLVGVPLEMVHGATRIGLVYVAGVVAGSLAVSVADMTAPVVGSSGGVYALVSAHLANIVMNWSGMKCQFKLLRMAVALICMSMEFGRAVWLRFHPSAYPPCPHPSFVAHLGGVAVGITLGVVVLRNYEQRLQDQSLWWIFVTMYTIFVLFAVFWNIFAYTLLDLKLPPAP
Source text: as §1, §2, §3

AaROM = assay: as above; assay type: biochemical, Aquifex aeolicus; conditions: 50 μM and 0.5 μM
Source text: as §1, with “The assays we employed used fluorophosphonate ABPs that target the catalytic serine of a wide-range of serine hydrolases ([Bachovchin et al., 2014]), including rhomboids ([Xue et al., 2012]), and are thus very practical general detection reagents even for serine hydrolases for which sensitive substrates might not be available.” left out
as §2, with “The upper limit of enzyme concentration was 0.4 μM.” left out
(§4) For inhibitor selectivity profiling against rhomboid proteases ([Wolf et al., 2015]), 400 ng of a purified protein preparation of E. coli GlpG was diluted in 30 μL of reaction buffer (20 mM HEPES, pH 7.4, with 0.05% (w/v) DDM). […] Gels were scanned on a Typhoon Trio+ and analyzed using ImageJ. […]

VcROM = assay: as above; assay type: biochemical, Vibrio cholerae; conditions: 50 μM and 0.5 μM; outcompeted the ABP even at 500 nM
Source text: as §1, with “The assays we employed used fluorophosphonate ABPs that target the catalytic serine of a wide-range of serine hydrolases ([Bachovchin et al., 2014]), including rhomboids ([Xue et al., 2012]), and are thus very practical general detection reagents even for serine hydrolases for which sensitive substrates might not be available.” left out
as §2, with “The upper limit of enzyme concentration was 0.4 μM.” left out
as §4

[1] = biological target: dipeptidylpeptidase 7 (DPP7) (Homo sapiens, UniProt Q9UHL4); assay: EnPlex multiplex ABP competition profiling; assay type: biochemical; conditions: off-target hit; concentration range where they inhibit rhomboid proteases
Description: as §2
(§5) We next examined peptidyl ketoamides for their possible off-target effects on other serine proteases. To get a representative picture of the selectivity of peptidyl ketoamides, we employed a recently developed EnPlex technology, which allows multiplex analysis of ABP competition with about 100 human serine hydrolases, mostly proteases ([Bachovchin et al., 2014]).
as §3

[2] = test system: about 100 human serine hydrolases; assay: EnPlex multiplex ABP competition profiling; assay type: biochemical; conditions: concentration range where the ketoamides inhibit rhomboid proteases
Description: as §2, §5, §3

Row | SMILES | IC50 (endogenous GlpG) [nM] | competition with ABP labeling of DmRho1 (DmRho1) | competition with ABP labeling of HiGlpG (HiGlpG) | competition with ABP labeling of MmRHBDL3 (MmRHBDL3) | competition with ABP labeling of AaROM (AaROM) | competition with ABP labeling of VcROM (VcROM) | inhibition of DPP7 (EnPlex) [1] | inhibition of human serine hydrolases (EnPlex selectivity profile) [2]
1 | CC(=O)N[C@@H](CCCNC(=N)N)C(=O)N[C@H](C(=O)N[C@@H](CCCNC(=N)N)C(=O)N[C@@H](Cc1c[nH]cn1)C(=O)N[C@@H](C)C(=O)C(=O)NCCCCc1ccccc1)C(C)C [compound 11, Ac-RVRHA-CONH-phenylbutyl] (Ac-RVRH[X1]-{NH(4-phenylbutyl)}) | 2.7 ± 0.1 | none of these compounds were able to compete | potently competed | none of these compounds were able to compete | none of these compounds were able to compete | potently competed | the sequence related dipeptidylpeptidase 7 (DPP7) | fail to inhibit most of the tested human serine hydrolases
2 | CC(=O)N[C@@H](CCCNC(=N)N)C(=O)N[C@H](C(=O)N[C@@H](CCCNC(=N)N)C(=O)N[C@@H](Cc1c[nH]cn1)C(=O)N[C@@H](C)C(=O)C(=O)NCCc1ccccc1)C(C)C [compound 9, Ac-RVRHA-CONH-phenylethyl] (Ac-RVRH[X1]-NHPhenethyl) | 8.8 ± 0.4 | none of these compounds were able to compete | potently competed | none of these compounds were able to compete | none of these compounds were able to compete | potently competed | the sequence related dipeptidylpeptidase 7 (DPP7) | fail to inhibit most of the tested human serine hydrolases
